Results published in paper PMC7486443, “Generation of Phenothiazine with Potent Anti-TLK1 Activity for Prostate Cancer Therapy” (iScience, 2020).

How the values were obtained:
Assay in all cases: biochemical
Set-up in all cases: DiscoverX KINOMEscan scanMAX competition binding panel, single concentration, percent of control; remaining binding: dose or concentration left out as unconfirmed
Details in all cases: KINOMEscan binding, percent of control; read-out: Table S4_SCANMAX REPORT - related to Fig. 1 / Percent Control
CDKL1 = CDKL1 (Homo sapiens, UniProt Q00532)
NEK4 = NEK4 (Homo sapiens, UniProt P51957)
FLT3(N841I) = FLT3(N841I) (Homo sapiens, UniProt P36888, N841I)
IRAK1 = IRAK1 (Homo sapiens, UniProt P51617)
MINK = biological target: T1, MINK (Homo sapiens, UniProt Q8N4C8)
T1 construct: gene MINK1

[1] = biological target: T2, ABL1(F317I)-phosphorylated (Homo sapiens, UniProt P00519, F317I)
T2 construct: phosphorylated

CDK5 = CDK5 (Homo sapiens, UniProt Q00535)
Sequence of CDK5 (Q00535 whole entry): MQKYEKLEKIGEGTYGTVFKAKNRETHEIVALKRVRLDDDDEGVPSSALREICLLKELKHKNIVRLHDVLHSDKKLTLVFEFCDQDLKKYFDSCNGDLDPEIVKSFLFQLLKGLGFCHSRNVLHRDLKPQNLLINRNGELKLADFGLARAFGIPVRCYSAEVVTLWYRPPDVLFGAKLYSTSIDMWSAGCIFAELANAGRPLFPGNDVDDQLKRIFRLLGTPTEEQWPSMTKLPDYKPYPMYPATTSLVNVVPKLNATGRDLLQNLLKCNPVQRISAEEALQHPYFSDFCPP

LRRK2(G2019S) = LRRK2(G2019S) (Homo sapiens, UniProt Q5S007, G2019S)
Sequence of LRRK2(G2019S) (Q5S007 whole entry G2019S): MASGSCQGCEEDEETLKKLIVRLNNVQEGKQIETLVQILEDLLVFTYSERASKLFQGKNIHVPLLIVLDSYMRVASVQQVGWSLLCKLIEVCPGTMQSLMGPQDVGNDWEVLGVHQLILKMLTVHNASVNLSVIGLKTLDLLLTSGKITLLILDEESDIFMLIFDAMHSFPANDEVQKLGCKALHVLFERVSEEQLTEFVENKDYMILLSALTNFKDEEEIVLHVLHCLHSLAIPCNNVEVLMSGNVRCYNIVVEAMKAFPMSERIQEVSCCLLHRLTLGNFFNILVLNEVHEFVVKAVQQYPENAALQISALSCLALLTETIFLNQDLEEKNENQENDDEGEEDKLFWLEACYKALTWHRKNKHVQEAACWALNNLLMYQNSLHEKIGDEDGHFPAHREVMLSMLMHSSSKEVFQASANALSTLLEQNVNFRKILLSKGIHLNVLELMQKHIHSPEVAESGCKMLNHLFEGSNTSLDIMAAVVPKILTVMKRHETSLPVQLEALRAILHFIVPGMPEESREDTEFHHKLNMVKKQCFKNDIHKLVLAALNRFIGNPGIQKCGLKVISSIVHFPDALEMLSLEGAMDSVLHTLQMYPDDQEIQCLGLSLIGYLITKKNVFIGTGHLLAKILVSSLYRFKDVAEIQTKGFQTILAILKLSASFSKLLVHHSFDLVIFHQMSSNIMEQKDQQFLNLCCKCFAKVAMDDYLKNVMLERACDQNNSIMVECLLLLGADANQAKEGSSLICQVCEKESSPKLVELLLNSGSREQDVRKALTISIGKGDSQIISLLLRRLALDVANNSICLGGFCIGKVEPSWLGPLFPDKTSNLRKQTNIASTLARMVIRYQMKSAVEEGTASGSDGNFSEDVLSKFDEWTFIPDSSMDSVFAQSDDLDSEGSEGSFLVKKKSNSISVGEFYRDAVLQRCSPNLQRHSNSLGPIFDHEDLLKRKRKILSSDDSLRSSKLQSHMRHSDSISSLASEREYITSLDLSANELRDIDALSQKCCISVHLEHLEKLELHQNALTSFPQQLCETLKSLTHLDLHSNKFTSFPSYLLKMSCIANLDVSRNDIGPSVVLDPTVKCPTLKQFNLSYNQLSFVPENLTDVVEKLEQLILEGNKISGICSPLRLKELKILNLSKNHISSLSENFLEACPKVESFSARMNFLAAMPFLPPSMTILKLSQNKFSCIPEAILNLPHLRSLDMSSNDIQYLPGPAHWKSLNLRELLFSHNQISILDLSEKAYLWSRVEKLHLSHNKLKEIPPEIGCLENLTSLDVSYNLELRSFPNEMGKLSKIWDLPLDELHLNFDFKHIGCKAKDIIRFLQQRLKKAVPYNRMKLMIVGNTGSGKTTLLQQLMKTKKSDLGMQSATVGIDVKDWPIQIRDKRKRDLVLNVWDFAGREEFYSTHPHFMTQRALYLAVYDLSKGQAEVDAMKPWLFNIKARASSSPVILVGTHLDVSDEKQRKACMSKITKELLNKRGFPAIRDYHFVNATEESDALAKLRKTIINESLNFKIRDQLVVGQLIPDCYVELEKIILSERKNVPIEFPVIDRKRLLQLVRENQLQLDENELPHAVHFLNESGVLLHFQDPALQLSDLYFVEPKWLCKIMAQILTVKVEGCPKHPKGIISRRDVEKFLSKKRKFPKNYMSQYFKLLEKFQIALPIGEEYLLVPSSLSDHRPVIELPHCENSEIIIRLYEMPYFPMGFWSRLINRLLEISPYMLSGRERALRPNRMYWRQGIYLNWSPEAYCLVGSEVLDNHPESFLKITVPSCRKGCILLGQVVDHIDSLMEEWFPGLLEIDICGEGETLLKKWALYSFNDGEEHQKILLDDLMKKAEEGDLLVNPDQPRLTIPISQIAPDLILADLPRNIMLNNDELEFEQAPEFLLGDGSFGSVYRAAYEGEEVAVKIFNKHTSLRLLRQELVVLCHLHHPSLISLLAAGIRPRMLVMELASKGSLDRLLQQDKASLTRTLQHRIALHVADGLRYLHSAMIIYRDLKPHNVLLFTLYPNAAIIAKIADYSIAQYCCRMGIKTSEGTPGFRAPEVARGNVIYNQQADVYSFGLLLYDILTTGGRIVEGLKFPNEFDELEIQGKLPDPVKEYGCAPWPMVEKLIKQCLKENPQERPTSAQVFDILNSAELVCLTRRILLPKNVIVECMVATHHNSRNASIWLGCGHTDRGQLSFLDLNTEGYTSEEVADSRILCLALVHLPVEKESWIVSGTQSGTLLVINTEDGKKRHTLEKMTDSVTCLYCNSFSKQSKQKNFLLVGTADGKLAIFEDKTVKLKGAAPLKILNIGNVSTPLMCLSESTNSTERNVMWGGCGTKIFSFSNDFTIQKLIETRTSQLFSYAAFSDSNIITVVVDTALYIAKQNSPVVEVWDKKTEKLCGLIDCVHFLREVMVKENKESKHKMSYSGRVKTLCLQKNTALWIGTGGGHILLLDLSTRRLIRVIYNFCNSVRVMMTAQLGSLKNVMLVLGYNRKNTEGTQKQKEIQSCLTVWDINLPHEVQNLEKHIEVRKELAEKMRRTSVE

EPHA3 = EPHA3 (Homo sapiens, UniProt P29320)
Sequence of EPHA3 (P29320 whole entry): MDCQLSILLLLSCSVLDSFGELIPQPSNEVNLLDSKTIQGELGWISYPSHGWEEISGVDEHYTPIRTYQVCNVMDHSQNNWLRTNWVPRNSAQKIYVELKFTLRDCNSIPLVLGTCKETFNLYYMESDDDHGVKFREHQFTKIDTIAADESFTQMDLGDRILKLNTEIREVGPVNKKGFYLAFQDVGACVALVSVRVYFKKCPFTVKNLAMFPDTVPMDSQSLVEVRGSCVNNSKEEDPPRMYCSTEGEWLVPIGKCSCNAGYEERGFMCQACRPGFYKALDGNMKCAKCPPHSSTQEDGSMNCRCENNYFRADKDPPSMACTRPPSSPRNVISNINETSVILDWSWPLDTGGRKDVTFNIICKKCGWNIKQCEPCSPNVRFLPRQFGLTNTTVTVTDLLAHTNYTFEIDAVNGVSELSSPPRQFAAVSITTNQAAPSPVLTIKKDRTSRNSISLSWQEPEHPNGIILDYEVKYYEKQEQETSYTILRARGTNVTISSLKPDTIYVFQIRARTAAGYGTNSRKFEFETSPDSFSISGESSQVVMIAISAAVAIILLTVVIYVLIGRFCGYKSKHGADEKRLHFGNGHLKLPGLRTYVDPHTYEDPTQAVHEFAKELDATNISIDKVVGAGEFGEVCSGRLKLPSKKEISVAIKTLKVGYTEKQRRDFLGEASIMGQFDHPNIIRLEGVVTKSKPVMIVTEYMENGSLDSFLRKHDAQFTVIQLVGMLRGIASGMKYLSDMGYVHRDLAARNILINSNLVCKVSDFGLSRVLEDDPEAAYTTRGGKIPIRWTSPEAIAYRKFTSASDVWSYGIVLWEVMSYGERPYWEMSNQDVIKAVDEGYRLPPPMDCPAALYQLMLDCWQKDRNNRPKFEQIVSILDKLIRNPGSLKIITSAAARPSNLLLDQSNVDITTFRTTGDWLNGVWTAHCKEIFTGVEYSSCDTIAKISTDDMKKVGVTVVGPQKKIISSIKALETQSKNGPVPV

PIK3C2B = PIK3C2B (Homo sapiens, UniProt O00750)
WEE2 = WEE2 (Homo sapiens, UniProt P0C1S8)
CSNK1A1 = CSNK1A1 (Homo sapiens, UniProt P48729)
STK39 = STK39 (Homo sapiens, UniProt Q9UEW8)
NDR1 = biological target: T3, NDR1 (Homo sapiens, UniProt Q15208)
T3 construct: gene STK38
T3 sequence (Q15208 whole entry): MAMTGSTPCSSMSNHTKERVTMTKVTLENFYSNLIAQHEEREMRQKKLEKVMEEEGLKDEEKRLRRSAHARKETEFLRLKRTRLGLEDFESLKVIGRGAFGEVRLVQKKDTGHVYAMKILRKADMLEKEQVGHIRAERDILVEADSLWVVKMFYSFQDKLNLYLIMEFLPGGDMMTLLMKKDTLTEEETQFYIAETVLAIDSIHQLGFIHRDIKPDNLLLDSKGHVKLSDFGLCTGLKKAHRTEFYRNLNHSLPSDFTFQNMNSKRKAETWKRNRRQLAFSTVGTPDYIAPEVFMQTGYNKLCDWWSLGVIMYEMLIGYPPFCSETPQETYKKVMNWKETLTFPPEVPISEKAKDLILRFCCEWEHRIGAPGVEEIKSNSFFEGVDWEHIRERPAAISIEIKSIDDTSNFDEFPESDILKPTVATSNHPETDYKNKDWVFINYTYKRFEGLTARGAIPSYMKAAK

PKN1 = PKN1 (Homo sapiens, UniProt Q16512)
HIPK4 = HIPK4 (Homo sapiens, UniProt Q8NE63)
Sequence of HIPK4 (Q8NE63 whole entry): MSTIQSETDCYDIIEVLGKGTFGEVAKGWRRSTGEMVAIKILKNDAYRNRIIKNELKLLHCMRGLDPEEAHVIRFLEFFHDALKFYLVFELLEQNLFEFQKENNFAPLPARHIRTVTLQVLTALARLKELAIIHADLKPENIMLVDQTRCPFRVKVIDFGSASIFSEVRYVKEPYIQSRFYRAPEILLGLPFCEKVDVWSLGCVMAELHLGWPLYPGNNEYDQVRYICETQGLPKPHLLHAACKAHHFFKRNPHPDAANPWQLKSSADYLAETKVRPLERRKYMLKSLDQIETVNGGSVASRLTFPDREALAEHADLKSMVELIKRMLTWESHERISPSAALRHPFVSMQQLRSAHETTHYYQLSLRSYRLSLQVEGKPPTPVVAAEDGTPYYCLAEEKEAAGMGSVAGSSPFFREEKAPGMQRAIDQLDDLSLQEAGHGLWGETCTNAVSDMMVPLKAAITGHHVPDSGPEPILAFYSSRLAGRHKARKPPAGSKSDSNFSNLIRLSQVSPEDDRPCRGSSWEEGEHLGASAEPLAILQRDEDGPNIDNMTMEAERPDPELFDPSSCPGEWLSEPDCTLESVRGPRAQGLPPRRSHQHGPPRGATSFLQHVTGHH

MARK2 = MARK2 (Homo sapiens, UniProt Q7KZI7)
YSK4 = biological target: T4, YSK4 (Homo sapiens, UniProt Q56UN5)
T4 construct: gene MAP3K19

## c1ccc2c(c1)Sc1ccccc1N2CCN1CCOCC1 [J54]
CDKL1
  remaining binding: 79%
NEK4
  remaining binding: 100%
FLT3(N841I)
  remaining binding: 99%
IRAK1
  remaining binding: 100%
MINK
  remaining binding: 100%
[1]
  remaining binding: 100%
CDK5
  remaining binding: 99%
LRRK2(G2019S)
  remaining binding: 38%
EPHA3
  remaining binding: 99%
PIK3C2B
  remaining binding: 96%
WEE2
  remaining binding: 100%
CSNK1A1
  remaining binding: 100%
STK39
  remaining binding: 100%
NDR1
  remaining binding: 100%
PKN1
  remaining binding: 100%
HIPK4
  remaining binding: 90%
MARK2
  remaining binding: 99%
YSK4
  remaining binding: 86%
